Experimental data from US6686394B1, “Aryl-chloro-ethyl ureas” (Sovar, Societe en Commandite, priority 1999, dated 2004).

Tests used:
[1] = test system: MDA-MB-231 (human breast cancer cells); experiment: In-vitro cytotoxicity, MTT assay (Example 1); assay type: cell-based; settings: MDA-MB-231, 120 h, Table I, four to five days in the presence of drugs
Protocol: (§1) The conventional evaluation method proposed by the American National Cancer Institute was used. The method measures effectiveness of an anti-cancer drug based on IC50 which symbolizes the drug concentration in μM at which the drug achieves the inhibition of proliferation of a given line of cancer cells by a factor of one half when compared to the normal proliferation of the same line of cancer cells in the same growth media
(§2) CAU were tested on several cell lines including human non-hormone-dependant breast cancer cells (MDA-MB-231), and mouse leukemia (L1210). MDA-MB-231. These cell lines were obtained from the American Type Culture Collection (Bethesda, Md., USA). Cytotoxicity of CAU derivatives was tested and compared to the effect of chlorambucil and carmustine.
(§3) Tumor cells were grown in RPMI-1640 medium supplemented with 10% fetal calf serum, 2 mM glutamine and 64 U/mL of gentamycin. Cells were routinely passaged at 90% confluence.
(§4) Five thousand cells (100 μl) were seeded in 96 well's plate and incubated for one day at 37° C. under a humidified atmosphere, in presence of 5% CO2. […]
(§5) Cell's survival was evaluated by colorimetric assay using MTT, according to a modification of the procedure reported by Carmichael and coil. […] The plates were then shaken for 15 minutes and the absorbance read at 570 nm with a Behring Elisa Procesor II (Behring, Marburg, Germany). […]

[2] = test system: L1210 (mouse leukemia cells); experiment: In-vitro cytotoxicity, MTT assay (Example 1); assay type: cell-based; settings: L1210, 120 h, Table I, four to five days in the presence of drugs
Protocol: as §1, §2, §3, §4, §5

[3] = test system: CHO; experiment: Cytotoxicity assay G50, MTT or resazurin (Example 29); assay type: cell-based, Chinese Hamster; settings: Cricetulus griseus; cell line CHO
Protocol: (§6) The MTT assay was as described above in Example 1. The Resazurin assay was performed as follows:
(§7) Aspirate the supernatant (cell suspension: centrifuge first)
(§8) Add 100 μL NaCl 0.9% (saline)
(§9) Add 50 μL RZ (resazurin 125 μg/ml/PBS: RPMI without FBS; 1:4)
(§10) Collect fluorescence data at different time.

[4] = test system: HT-29; experiment: as above; assay type: cell-based; settings: Homo sapiens; cell line HT-29
Protocol: (§11) Cell culture. Tumor cell lines (B16-F0, Caco-2, DU-145, HT-29, MDA-MB-231 and other cell lines described so far in the patent application) were obtained from the American Type Culture Collection (ATCC HTB-26; Bethesda, Md.). Cells were grown in RPMI 1640 medium supplemented with 10% fetal bovine serum (Hyclone, Road Logan, Utah) and were cultured in a humidified atmosphere at 37° C. in 5% CO2.
(§12) Drugs: All drugs were dissolved in DMSO and the final concentration of DMSO in the culture medium was maintained at 0.5% (v/v).
(§13) Cytotoxiciy assays. At day-1, tumor cells in suspension in 100 μl were plated in microtiter plates (96 wells). On day-0, tumor cells were treated by addition of escalating concentrations of the drug (100 μl solution). On that day, the number of living cells was determined in wells that were untreated. The number of living cells is determined using either MTT or resazurin assays. Growth inhibition activity of these compounds was expressed as the concentration of CAU inhibiting cell growth by 50% G50 in the following table
as §6, §7, §8, §9, §10

[5] = test system: MDA-MB-231; experiment: as above; assay type: cell-based; settings: Homo sapiens; cell line MDA-MB-231
Protocol: as §11, §12, §13, §6, §7, §8, §9, §10

[6] = test system: DU-145; experiment: as above; assay type: cell-based; settings: Homo sapiens; cell line DU-145
Protocol: as §11, §12, §13, §6, §7, §8, §9, §10

[7] = test system: B16-F0; experiment: as above; assay type: cell-based; settings: Mus musculus, B16F0; cell line B16-F0
Protocol: as §11, §12, §13, §6, §7, §8, §9, §10

[8] = test system: Caco-2; experiment: as above; assay type: cell-based; settings: Homo sapiens; cell line Caco-2
Protocol: as §11, §12, §13, §6, §7, §8, §9, §10

[9] = test system: L1210; experiment: as above; assay type: cell-based; settings: Mus musculus; cell line L1210
Protocol: as §6, §7, §8, §9, §10

[10] = test system: MCF-7; experiment: as above; assay type: cell-based; settings: Homo sapiens, MCF7; cell line MCF-7
Protocol: as §6, §7, §8, §9, §10

[11] = test system: T24; experiment: as above; assay type: cell-based; settings: Homo sapiens, T-24; cell line T24
Protocol: as §6, §7, §8, §9, §10

[12] = test system: K562; experiment: as above; assay type: cell-based; settings: Homo sapiens; cell line K562
Protocol: as §6, §7, §8, §9, §10

Compound	IC50 [1]	IC50 [2]	IC50 [3]	IC50 [4]	IC50 [5]	IC50 [6]	IC50 [7]	IC50 [8]	IC50 [9]	IC50 [10]	IC50 [11]	IC50 [12]
O=NN(CCCl)C(=O)NCCCl [Carmustine, carmustine]	6.8 µM	4.5 µM	–	–	–	–	–	–	–	–	–	–
CCCCCCCc1ccc(NC(=O)N[C@@H](C)CCl)cc1 [Example 22]	–	–	3.8 µM	7.69 µM	8.33 µM	7.46 µM	6.6 µM	7.61 µM	7.48 µM	5.56 µM	6.15 µM	6.96 µM
COc1ccc(NC(=O)N[C@@H](C)CCl)cc1OC [Example 18]	–	–	> 100 µM	> 100 µM	> 100 µM	> 100 µM	> 100 µM	> 100 µM	> 100 µM	> 100 µM	> 100 µM	> 100 µM
CCCCCCCc1ccc(NC(=O)N[C@H](C)CCl)cc1 [Example 21]	–	–	3.46 µM	2.17 µM	4.64 µM	3.63 µM	3.79 µM	4.94 µM	2.42 µM	3.31 µM	2.18 µM	2.41 µM
CC[C@H](CCl)NC(=O)Nc1ccc(OC)c(OC)c1 [Example 20]	–	–	> 100 µM	> 100 µM	> 100 µM	> 100 µM	> 100 µM	> 100 µM	> 100 µM	> 100 µM	> 100 µM	> 100 µM
